Data taken from patent US10123904B2, “Preservative removal from eye drops” (University of Florida Research Foundation, Inc., priority 2014, dated 2018).
Counter-ions that a name gives are not always drawn. Like-named read-outs stand apart in the source and are kept apart here. Marks after values point to notes of the source that are not given here. Values belong to the compound of their own block, whether it stands above or below them.

What was measured:
[1] = Partition coefficient of drugs and BAK in macroporous pHEMA gel; assay type: physicochemical; settings: for Partition coefficient in macroporous pHEMA gel: 250 mg gel soaked in 12 mL drug or BAK solution in PBS, 15 days, mean ± SD, n = 3; for Partition coefficient smaller than that of BAK: macroporous pHEMA gel
Procedure: As indicated above, the absorption percentage of hydrophilic drug is small, whereas a significant amount of hydrophobic drug is uptake by the macroporous pHEMA gel. The high affinity of hydrophobic drug to the gel can be determined by measuring the partition coefficient of the drug in the gel. To measure the partition coefficient, a piece of macroporous pHEMA gel of 250 mg was soaked in 12 mL of drug or BAK solution. After 15 days of soaking, the concentration of the drug or BAK solution was measured by using UV-Vis spectrophotometry. The drug or BAK concentration after soaking indicated the amount of drug or BAK in reference to the initial concentration is that absorbed into the gel. The partition coefficient of timolol and dorzolamide in macroporous pHEMA gel is roughly 15 times smaller than that of BAK, which is excellent separation efficiency. In contrast, the partition coefficients of latanoprost and BAK are pretty high and the separation efficiency of the gel for this mixture is poor.

[2] = BAK/drug removal by macroporous pHEMA gel plug packed in syringe, 10 consecutive passes; assay type: physicochemical; settings: for Drug adsorption percentage: first pass through the 10th pass, macroporous pHEMA gel; for Percentage removed/absorbed after passing through plug: 2.5 mL through 5 mm macroporous pHEMA gel, 1 cm syringe
Procedure: The four drugs were dissolved in PBS and mixed with BAK individually. The macroporous pHEMA hydrogel prepared as above, was used as the BAK removal filter and packed into the syringe, as described above. The experimental setup is that of FIG. 3. […] The solution that passed through the filter plug was collected and the concentration of drug/BAK was determined by measuring the UV-Vis spectra. The measured UV spectrum was a linear combination of the testing drug and BAK and thus, the individual concentration of the drug and BAK could be determined by applying a least square fit method as described in Kim et al. Int. J.

[3] = BAK/drug removal by crushed macroporous pHEMA particles packed in syringe, passes separated by 24 hours; assay type: physicochemical
Procedure: Macroporous pHEMA hydrogel as prepared above was dried in the oven of 80° C. and crushed into particles and the particles packed into the syringe. Two pieces of filter papers were placed at the bottom of the syringe to prevent the packing particles from leaking out. Particles facilitate packing of a hydrogel into the neck of the eye drop bottle where packing is amenable to high-throughput industrial scale loading of gel filters. […] The process was timed using a stopwatch from the moment of placing the weight to the last drop entered the beaker. The weight of the collected solution in the beaker was measured to calculate the flow rate through the pHEMA particles. […] The UV spectrum of the collected solution was measured and the individual concentration of the drug and BAK were determined by a least square fit method as described in Kim et al., Int. J. […] After each measurement, the bottom outlet of the syringe was sealed with parafilm to prevent dehydration of the packed pHEMA particles in the manner equivalent to sealing the eye drop bottle with the cap after use.

[4] = Partition coefficient in pHEMA particles prepared using SR9035 as cross-linker; assay type: physicochemical; settings: 100 mg particles soaked in 3.5 mL solution, 9 days
Procedure: The partition coefficients of timolol, CMC and BAK in pHEMA particles prepared using SR9035 as cross-linker was measured. pHEMA particles (100 mg) were soaked in 3.5 mL of timolol, CMC and BAK solution, which concentration was 0.08 mg/mL, 0.5% and 2.4 mg/mL, respectively. After 9 days of soaking, the concentration of the drug or BAK solution was measured by using UV-Vis spectrophotometry. The drug or BAK concentration after soaking indicated the amount of drug or BAK that absorbed into the gel relative to the initial concentration. The partition coefficient of timolol and CMC in pHEMA particles is much smaller than that of BAK, and should have excellent separation efficiency.

[5] = Timolol/BAK separation by UV-initiated pHEMA particles (EGDMA) in eye drop bottle prototype; assay type: physicochemical
Source text: The sodium chloride promoted phase separation of the mixture. Small globules containing HEMA monomer and EGDMA was formed by continuously stirring the system at high rpm. […] In addition, the petri dish was covered to avoid water evaporation and oxygenation. After the polymerization, the pHEMA particles were separated from the solution by vacuum filtration method and washed with a large quantity of DI water to remove the unreacted monomers and other impurities. The particles were then dried in an oven of 80° C. […] The synthesized particles were packed in the prototype bottle and tested for their selectivity of separation of BAK from timolol. […] The drug/BAK solution was injected into the prototype bottle with a syringe. A clip was applied to the bottle to impose a constant pressure drop. […] The UV spectrum of the outlet solution was measured and the concentrations of the drug and BAK were determined by the least square fit method described in Kim et al., Int. J. Pharm., 2008, Apr. 2; 353(1-2):205-22. Five samples were successively removed through the plug.

[6] = Timolol/BAK separation by heat-initiated pHEMA particles in eye drop bottle prototype; assay type: physicochemical
Procedure: FIG. 24 indicates the percentages of BAK and timolol that were absorbed after the mixture in solution was passed through the heat-initiated pHEMA particles, shown in FIG. 18. […] The hydraulic permeability of the packing particles is 0.0459 Darcy which was measured as described, above. […] The size of the particles prepared by UV or heat-initiated polymerization is similar. […] The drug/BAK solution was injected into the prototype bottle with a syringe. […] The UV spectrum of the outlet solution was measured and the individual concentration of the drug and BAK was determined by a least square fit method as described in Kim et al., Int. J.

[7] = Timolol/BAK separation by pHEMA particles with SR454HP cross-linker in eye drop bottle prototype; assay type: physicochemical
Source text: (§1) More rigid and larger size particles create a larger void space for fluid to flow and improved hydraulic permeability. […] This would be undesirable because the plug is drug at the time of the instillation of the first drop but then could be partially or fully hydrated for subsequent instillations, depending on whether the plug retains the fluid in the interim time between successive instillations. […] During the UV curing, the mixture was continuously stirred by a 35×6 mm magnetic stirring bar at 70 rpm. In addition, the petri dish was covered to avoid water evaporation and oxygenation. After polymerization, the pHEMA gel were separated from the solution by vacuum filtration method and washed with a large quantity of DI water to remove the unreacted monomers and other impurities. The pHEMA gel was then dried in an oven of 80° C. and crushed into particles in a mortar. Selectivity of the separation of BAK from timolol was measured. […] A constant pressure drop was applied across the packed particles to maintain a constant flow rate through the plug. […] The UV spectrum of the outlet solution was measured and the concentrations of the drug and BAK were determined by the least square fit method described in Kim et al., Int. J. […] The tip of the prototype bottle was sealed with parafilm. […] The step was repeated 10 times over a total of 10 days.

[8] = Timolol/BAK separation by pHEMA particles with SR9035 cross-linker in eye drop bottle prototype; assay type: physicochemical
Source text: as §1

[9] = Latanoprost/BAK separation by crushed macroporous pHEMA particles in eye drop bottle prototype; assay type: physicochemical; settings: all 10 runs over 10 days; 1.5 mL, 8 mm plug, particles pre-equilibrated with latanoprost
Procedure: The crushed macroporous pHEMA particles were prepared as described above. The particles were packed in the eye drop bottle prototype (FIG. 19) to test its selectivity of separation of BAK from latanoprost. The concentration of latanoprost and BAK prepared for the testing were both 0.03 mg/mL with PBS as the solvent. The drug/BAK solution was injected into the prototype bottle with a syringe. A clip was clipping on the bottle to create a constant pressure drop across the packing pHEMA particles of 8 mm in length. A volume of 1.5 mL of the drug/BAK solution was passed through the filter by squeezing the bottle. The UV spectrum of the outlet solution was measured and the individual concentration of the drug and BAK was determined by a least square fit method as described in Kim et al., Int. J. Pharm., 2008, Apr. 2; 353(1-2):205-22. The tip of the prototype bottle was sealed with parafilm. After 24 hours, another 1.5 mL drug/BAK solution was removed through the same filter and again to measure the concentrations of the drug and BAK. The step was repeated 10 times over a total of 10 days.

[10] = Binding of BAK and drugs to pHEMA matrix (general statement); assay type: physicochemical
[11] = Partition coefficient of BAK in pHEMA particles prepared by heat-initiated polymerization; assay type: physicochemical
[12] = 3 consecutive runs; hydrogel treated with 1% MAA
Procedure: The hydrogel was packed into the syringe as BAK removal filter and its separation efficiency of BAK from dexamethasone was tested in the same manner as the copolymer.

Partition coefficient in macroporous pHEMA gel [1]: 33.53 ± 1.31
Compound: C[C@@H]1C[C@H]2[C@@H]3CCC4=CC(=O)C=C[C@]4(C)[C@@]3(F)[C@@H](O)C[C@]2(C)[C@@]1(O)C(=O)CO [Dexamethasone, dexamethasone]

Partition coefficient in macroporous pHEMA gel [1]: 7.59 ± 0.56
Partition coefficient smaller than that of BAK [1]: roughly 15 times
Drug adsorption percentage [2]: about 5%
Compound: CCN[C@H]1C[C@H](C)S(=O)(=O)c2sc(S(N)(=O)=O)cc21 [Dorzolamide, dorzolamide hydrochloride]

Partition coefficient in macroporous pHEMA gel [1]: 90.18 ± 1.36
Percentage removed/absorbed after passing through plug ([2]; 10th pass): 30%
Percentage removed/absorbed after passing through plug ([2]; first run): 90%
Portion of drug absorbed ([3]; particles pre-equilibrated with the corresponding drug solution): only a very small portion
Compound: CC(C)OC(=O)CCC/C=C\C[C@@H]1[C@@H](CC[C@@H](O)CCc2ccccc2)[C@H](O)C[C@@H]1O [Latanoprost, latanoprost]

Partition coefficient in macroporous pHEMA gel [1]: 6.49 ± 0.37
Partition coefficient smaller than that of BAK [1]: roughly 15 times
Partition coefficient in pHEMA particles prepared by using SR9035 as cross-linker [4]: 5.59 ± 0.13^a
Drug adsorption percentage [2]: about 5%
Percentage removed ([5]; each of the 5 runs): about 1.5%
Percentage removed ([6]; 1st run): About 17%
Percentage removed ([6]; 10th run): about 3%
Percentage removed ([7]; 1st run): About 18%
Amount removed ([7]; 10th run): negligible
Percentage removed ([8]; 1st run): About 25%
Amount removed ([8]; after the 5th run): negligible
Compound: CC(C)(C)NC[C@H](O)COc1nsnc1N1CCOCC1 [Timolol, timolol maleate]

Compound: Benzalkonium chloride [BAK]
Partition coefficient in pHEMA particles prepared by using SR9035 as cross-linker [4]: ~300
Percentage removed/absorbed after passing through plug ([2]; 10th pass): 70-80%
Percentage removed/absorbed after passing through plug ([2]; first run): 100%
Percentage of BAK removed ([3]; all 10 passes, each separated by 24 hours, regardless of the drug in the solution): ~100%
Percentage of BAK removed [9]: ~100%
Percentage removed ([5]; 5th run, 1.5 mL, 8 mm plug): 30%
Percentage removed ([5]; first pass, 1.5 mL, 8 mm plug): Roughly 50%
Percentage removed ([6]; each of 10 passes carried out successively, 1.5 mL, 8 mm plug): ~100%
Percentage removed ([7]; after the 5th run): about 90%
Percentage removed ([7]; first 3-5th runs, 1.5 mL daily, 1.8 cm plug): ~100%
Percentage removed ([8]; 10th run): about 95%
Percentage removed ([8]; first 6th runs, 1.5 mL daily, 1.8 cm plug): ~100%
Adsorption time on pHEMA ([10]; compared with transit time through plug): < 3 s
Partition coefficient into the pHEMA matrix ([10]; depending on BAK concentration and structure of the pHEMA matrix): 100-500
Partition coefficient of BAK in pHEMA particles prepared by heat-initiated polymerization [11]: 200-250
Percentage of BAK removed [12]: ~100%
